{
  "source": "paper PMC3914206",
  "assay_type_in_all_cases": "binding",
  "set-up_in_all_cases": "KINOMEscan: ABL1(F317L)-phosphorylated / KINOMEscan: ABL1(H396P)-nonphosphorylated / KINOMEscan: ABL1(H396P)-phosphorylated / KINOMEscan: ABL1(M351T)-phosphorylated / KINOMEscan: ABL1(T315I)-phosphorylated / KINOMEscan: ABL1-nonphosphorylated / KINOMEscan: ABL1-phosphorylated / KINOMEscan: ACVR2A / KINOMEscan: ACVR2B / KINOMEscan: ADCK3 / KINOMEscan: ADCK4 / KINOMEscan: AKT1 / KINOMEscan: AKT3 / KINOMEscan: ALK / KINOMEscan: ARK5 / KINOMEscan: AURKA / KINOMEscan: AURKC / KINOMEscan: BIKE / KINOMEscan: BMPR1A / KINOMEscan: BMPR1B / KINOMEscan: BMX / KINOMEscan: BRK / KINOMEscan: BRSK1 / KINOMEscan: BRSK2 / KINOMEscan: CAMK1 / KINOMEscan: CAMK1D / KINOMEscan: CAMK1G / KINOMEscan: CAMK2A / KINOMEscan: CAMK2B / KINOMEscan: AAK1 / KINOMEscan: CAMK2D / KINOMEscan: CAMK2G / KINOMEscan: ABL1(F317I)-nonphosphorylated / KINOMEscan: ABL1(F317I)-phosphorylated / KINOMEscan: ABL1(F317L)-nonphosphorylated: unit: % Ctrl",
  "settings_in_all_cases": "Compound Concentration 10 µM",
  "key": {"panel of 442 kinases [1]": {"molecular_target": "T1, panel of 442 kinases (Homo sapiens, UniProt Q13555)", "T1 construct": "purchased KINOMEscan", "text": "(§1) We assessed the selectivity of members of this scaffold using the KINOMEscan methodology across a near comprehensive panel of 442 kinases [[18,27]]."}, "panel of 442 kinases [2]": {"molecular_target": "T2, panel of 442 kinases (Homo sapiens, UniProt P10721, V559D)", "T2 construct": "purchased KINOMEscan", "T2 sequence (P10721 26-976 V559D)": "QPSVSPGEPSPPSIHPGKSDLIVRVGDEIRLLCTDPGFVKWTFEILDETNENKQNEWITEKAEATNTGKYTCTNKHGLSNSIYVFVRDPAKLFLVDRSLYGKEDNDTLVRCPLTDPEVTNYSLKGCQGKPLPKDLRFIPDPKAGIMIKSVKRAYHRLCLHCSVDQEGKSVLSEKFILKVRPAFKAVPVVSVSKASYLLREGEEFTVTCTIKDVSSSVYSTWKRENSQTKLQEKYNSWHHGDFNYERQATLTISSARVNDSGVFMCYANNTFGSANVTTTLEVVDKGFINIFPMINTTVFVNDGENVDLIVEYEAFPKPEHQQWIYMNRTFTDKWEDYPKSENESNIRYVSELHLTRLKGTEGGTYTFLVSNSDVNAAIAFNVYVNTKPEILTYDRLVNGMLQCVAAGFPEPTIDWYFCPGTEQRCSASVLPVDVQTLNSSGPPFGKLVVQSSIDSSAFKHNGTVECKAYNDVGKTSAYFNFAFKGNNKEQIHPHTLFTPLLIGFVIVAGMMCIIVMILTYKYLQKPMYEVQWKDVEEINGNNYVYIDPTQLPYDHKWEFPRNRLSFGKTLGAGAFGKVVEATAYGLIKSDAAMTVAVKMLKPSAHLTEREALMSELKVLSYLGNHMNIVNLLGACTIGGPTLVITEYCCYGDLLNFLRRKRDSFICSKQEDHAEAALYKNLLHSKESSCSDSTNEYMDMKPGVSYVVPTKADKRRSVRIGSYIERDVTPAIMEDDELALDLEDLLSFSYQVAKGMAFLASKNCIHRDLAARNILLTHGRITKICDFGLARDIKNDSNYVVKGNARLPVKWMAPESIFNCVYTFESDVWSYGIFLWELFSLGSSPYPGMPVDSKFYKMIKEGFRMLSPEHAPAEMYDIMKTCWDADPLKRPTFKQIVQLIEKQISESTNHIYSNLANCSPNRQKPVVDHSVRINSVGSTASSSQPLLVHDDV", "text": "as §1"}, "panel of 442 kinases [3]": {"molecular_target": "T3, panel of 442 kinases (Homo sapiens, UniProt Q13153)", "T3 construct": "purchased KINOMEscan", "T3 sequence (Q13153 whole entry)": "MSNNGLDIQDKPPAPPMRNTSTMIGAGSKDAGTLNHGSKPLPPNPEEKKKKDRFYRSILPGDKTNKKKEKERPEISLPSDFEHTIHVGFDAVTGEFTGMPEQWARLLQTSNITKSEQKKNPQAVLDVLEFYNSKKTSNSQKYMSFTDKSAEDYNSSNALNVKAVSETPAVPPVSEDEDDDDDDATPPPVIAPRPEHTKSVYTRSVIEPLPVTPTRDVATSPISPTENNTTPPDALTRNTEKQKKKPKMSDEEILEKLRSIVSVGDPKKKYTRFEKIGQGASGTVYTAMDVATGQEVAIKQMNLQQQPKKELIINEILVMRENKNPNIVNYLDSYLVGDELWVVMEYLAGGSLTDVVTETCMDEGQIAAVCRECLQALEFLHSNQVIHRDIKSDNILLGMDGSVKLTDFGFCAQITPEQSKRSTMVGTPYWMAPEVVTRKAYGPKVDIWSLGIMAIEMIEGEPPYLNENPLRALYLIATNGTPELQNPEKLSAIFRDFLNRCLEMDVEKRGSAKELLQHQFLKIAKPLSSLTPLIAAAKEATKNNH", "text": "as §1"}, "panel of 442 kinases [4]": {"molecular_target": "T4, panel of 442 kinases (Homo sapiens, UniProt Q99755)", "T4 construct": "purchased KINOMEscan", "T4 sequence (Q99755 whole entry)": "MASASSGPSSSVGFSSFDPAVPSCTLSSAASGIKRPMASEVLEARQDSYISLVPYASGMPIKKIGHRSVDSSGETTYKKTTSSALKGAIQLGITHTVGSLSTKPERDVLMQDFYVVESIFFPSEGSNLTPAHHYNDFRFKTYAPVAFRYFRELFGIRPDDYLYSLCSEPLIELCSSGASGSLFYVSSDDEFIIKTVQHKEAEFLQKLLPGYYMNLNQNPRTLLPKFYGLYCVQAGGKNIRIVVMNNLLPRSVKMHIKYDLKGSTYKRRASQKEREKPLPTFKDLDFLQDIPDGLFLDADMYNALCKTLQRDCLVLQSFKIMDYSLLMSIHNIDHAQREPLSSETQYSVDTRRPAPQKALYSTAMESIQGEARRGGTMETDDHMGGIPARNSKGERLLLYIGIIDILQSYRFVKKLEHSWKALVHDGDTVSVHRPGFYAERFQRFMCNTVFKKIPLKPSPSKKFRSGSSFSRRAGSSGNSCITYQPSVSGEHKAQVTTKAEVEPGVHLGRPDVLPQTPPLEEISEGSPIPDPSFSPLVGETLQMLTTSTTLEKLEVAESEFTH", "text": "as §1"}},
  "data": [
    {"smiles": "COc1cc(C(=O)N2CCC(N3CCN(C)CC3)CC2)ccc1Nc1ncc2c(n1)N(C)c1ccccc1C(=O)N2C", "note": "[15 (LRRK2-IN-1)]", "values": [
      {"measurement": "KINOMEscan: CAMK2G", "setting": "panel of 442 kinases [1]", "result": 47},
      {"measurement": "KINOMEscan: KIT(V559D)", "setting": "panel of 442 kinases [2]", "result": 100},
      {"measurement": "KINOMEscan: PAK1", "setting": "panel of 442 kinases [3]", "result": 95},
      {"measurement": "KINOMEscan: PIP5K1A", "setting": "panel of 442 kinases [4]", "result": 90}
    ]},
    {"smiles": "COc1cc(C(=O)N2CCC(N3CCN(C)CC3)CC2)ccc1Nc1ncc2c(n1)N1CCc3cccc(c31)C(=O)N2C", "note": "[Compound 24]", "values": [
      {"measurement": "KINOMEscan: CAMK2G", "setting": "panel of 442 kinases [1]", "result": 76},
      {"measurement": "KINOMEscan: PAK1", "setting": "panel of 442 kinases [3]", "result": 85}
    ]},
    {"smiles": "COc1cc(C(=O)N2CCC(N3CCN(C)CC3)CC2)ccc1Nc1ncc2c(n1)N(C1CCCC1)c1ccccc1C(=O)N2C", "note": "[Compound 25, 11-cyclopentyl-2-((2-methoxy-4-(4-(4-methylpiperazin-1-yl)piperidine-1-carbonyl)phenyl)amino)-5-methyl-5H-benzo[e]pyrimido[5,4-b][1,4]diazepin-6(11H)-one]", "values": [
      {"measurement": "KINOMEscan: CAMK2G", "setting": "panel of 442 kinases [1]", "result": 98},
      {"measurement": "KINOMEscan: KIT(V559D)", "setting": "panel of 442 kinases [2]", "result": 96},
      {"measurement": "KINOMEscan: PAK1", "setting": "panel of 442 kinases [3]", "result": 82},
      {"measurement": "KINOMEscan: PIP5K1A", "setting": "panel of 442 kinases [4]", "result": 100}
    ]},
    {"smiles": "CCOc1cc(C(=O)N2CCC(N3CCN(C)CC3)CC2)ccc1Nc1ncc2c(n1)N(C1CCCC1)c1ccccc1C(=O)N2C", "note": "[Compound 26]", "values": [
      {"measurement": "KINOMEscan: CAMK2G", "setting": "panel of 442 kinases [1]", "result": 94},
      {"measurement": "KINOMEscan: KIT(V559D)", "setting": "panel of 442 kinases [2]", "result": 100},
      {"measurement": "KINOMEscan: PAK1", "setting": "panel of 442 kinases [3]", "result": 100},
      {"measurement": "KINOMEscan: PIP5K1A", "setting": "panel of 442 kinases [4]", "result": 78}
    ]}
  ]
}
